This passage reports IC50 and inhibition results from US11655235B2, “Pyrrolidine and piperidine compounds” (YUHAN CORPORATION, priority 2019, dated 2023).

Holding throughout (assay type): biochemical
Experiment [1] concerns the target T1, Recombinant human FAP (Homo sapiens, UniProt Q12884).
T1 construct: purchased R&D systems
T1 sequence (Q12884 1-760): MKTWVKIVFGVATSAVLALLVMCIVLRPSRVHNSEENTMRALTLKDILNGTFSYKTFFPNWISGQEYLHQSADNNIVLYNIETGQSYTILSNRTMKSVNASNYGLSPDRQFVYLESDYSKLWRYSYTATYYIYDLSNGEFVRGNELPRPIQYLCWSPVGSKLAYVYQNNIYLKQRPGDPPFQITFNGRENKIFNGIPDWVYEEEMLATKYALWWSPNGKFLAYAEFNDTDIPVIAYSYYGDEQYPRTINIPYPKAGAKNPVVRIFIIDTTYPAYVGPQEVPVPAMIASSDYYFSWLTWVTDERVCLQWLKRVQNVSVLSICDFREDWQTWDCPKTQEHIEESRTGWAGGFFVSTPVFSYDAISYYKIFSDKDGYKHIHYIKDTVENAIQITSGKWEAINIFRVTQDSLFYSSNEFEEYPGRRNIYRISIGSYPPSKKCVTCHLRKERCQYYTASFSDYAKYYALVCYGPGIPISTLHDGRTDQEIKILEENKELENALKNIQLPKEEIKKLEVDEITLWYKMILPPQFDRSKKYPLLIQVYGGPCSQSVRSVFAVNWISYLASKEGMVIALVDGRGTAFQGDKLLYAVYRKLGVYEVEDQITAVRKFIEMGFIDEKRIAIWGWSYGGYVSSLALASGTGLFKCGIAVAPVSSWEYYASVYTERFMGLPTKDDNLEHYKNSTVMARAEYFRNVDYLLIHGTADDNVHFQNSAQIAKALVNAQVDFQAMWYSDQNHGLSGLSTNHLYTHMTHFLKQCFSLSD
In words: FAP inhibition, fluorogenic substrate Z-Gly-Pro-AMC. The settings on record: 25° C., Z-Gly-Pro-AMC substrate. In a few lines: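 Eight-point compound dilutions (≤0.1% DMSO) were incubated at 25° C with 10 ng recombinant human FAP in Tris pH 7.5/1 M NaCl/BSA buffer and Z-Gly-Pro-AMC. Inhibition was taken as % drop in fluorescence rate (380/460 nm) against uninhibited control; IC50 came from a four-parameter logistic fit.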

Experiment [2] concerns the target T2, recombinant human DPP7 (Homo sapiens, UniProt Q9UHL4).
T2 construct: purchased R&D Systems
In words: DPP7 inhibition, fluorogenic substrate Lys-Pro-AMC. Summed up:
(§1)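 Inhibitors are titrated in an 8-point series into the enzyme's assay buffer (DMSO no more than 0.5%). Substrate cleavage at 25 °C is followed by fluorescence, excitation 380 nm and emission 460 nm. IC50 values come from a four-variable logistic model.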

For experiment [3], the target named is T3, recombinant human DPP8 (Homo sapiens, UniProt Q6V1X1).
T3 construct: purchased PBS Bioscience
T3 sequence (Q6V1X1 whole entry): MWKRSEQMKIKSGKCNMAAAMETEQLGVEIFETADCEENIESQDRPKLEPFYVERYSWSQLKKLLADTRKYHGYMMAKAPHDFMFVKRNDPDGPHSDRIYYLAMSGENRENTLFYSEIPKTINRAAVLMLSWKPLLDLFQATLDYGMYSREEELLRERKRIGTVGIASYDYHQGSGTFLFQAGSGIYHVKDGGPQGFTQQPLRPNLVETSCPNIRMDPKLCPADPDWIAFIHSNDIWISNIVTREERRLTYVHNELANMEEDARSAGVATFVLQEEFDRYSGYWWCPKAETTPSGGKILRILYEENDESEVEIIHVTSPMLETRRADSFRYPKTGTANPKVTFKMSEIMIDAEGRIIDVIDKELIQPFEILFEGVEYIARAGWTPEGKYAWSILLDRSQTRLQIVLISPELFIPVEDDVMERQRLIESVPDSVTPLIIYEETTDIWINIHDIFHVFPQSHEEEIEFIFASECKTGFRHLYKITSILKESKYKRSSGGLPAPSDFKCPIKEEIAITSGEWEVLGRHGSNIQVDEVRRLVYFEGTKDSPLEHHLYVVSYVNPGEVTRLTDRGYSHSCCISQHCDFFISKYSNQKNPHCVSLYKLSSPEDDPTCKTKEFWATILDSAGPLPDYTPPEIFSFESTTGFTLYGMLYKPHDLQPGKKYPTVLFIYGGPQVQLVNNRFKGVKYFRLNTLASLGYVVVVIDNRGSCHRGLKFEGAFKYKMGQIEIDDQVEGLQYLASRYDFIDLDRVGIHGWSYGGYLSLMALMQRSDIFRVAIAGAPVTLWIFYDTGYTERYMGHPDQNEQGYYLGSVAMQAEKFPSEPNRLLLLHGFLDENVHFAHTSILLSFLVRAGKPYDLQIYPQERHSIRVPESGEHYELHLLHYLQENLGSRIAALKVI
In words: DPP8 inhibition, fluorogenic substrate Z-Ala-Pro-AMC. Particulars: 25° C., Z-Ala-Pro-AMC substrate. In a few lines: as §1

The target in experiment [4] is T4, recombinant human DPP9 (Homo sapiens, UniProt Q86TI2).
T4 construct: purchased R&D Systems
T4 sequence (Q86TI2 whole entry): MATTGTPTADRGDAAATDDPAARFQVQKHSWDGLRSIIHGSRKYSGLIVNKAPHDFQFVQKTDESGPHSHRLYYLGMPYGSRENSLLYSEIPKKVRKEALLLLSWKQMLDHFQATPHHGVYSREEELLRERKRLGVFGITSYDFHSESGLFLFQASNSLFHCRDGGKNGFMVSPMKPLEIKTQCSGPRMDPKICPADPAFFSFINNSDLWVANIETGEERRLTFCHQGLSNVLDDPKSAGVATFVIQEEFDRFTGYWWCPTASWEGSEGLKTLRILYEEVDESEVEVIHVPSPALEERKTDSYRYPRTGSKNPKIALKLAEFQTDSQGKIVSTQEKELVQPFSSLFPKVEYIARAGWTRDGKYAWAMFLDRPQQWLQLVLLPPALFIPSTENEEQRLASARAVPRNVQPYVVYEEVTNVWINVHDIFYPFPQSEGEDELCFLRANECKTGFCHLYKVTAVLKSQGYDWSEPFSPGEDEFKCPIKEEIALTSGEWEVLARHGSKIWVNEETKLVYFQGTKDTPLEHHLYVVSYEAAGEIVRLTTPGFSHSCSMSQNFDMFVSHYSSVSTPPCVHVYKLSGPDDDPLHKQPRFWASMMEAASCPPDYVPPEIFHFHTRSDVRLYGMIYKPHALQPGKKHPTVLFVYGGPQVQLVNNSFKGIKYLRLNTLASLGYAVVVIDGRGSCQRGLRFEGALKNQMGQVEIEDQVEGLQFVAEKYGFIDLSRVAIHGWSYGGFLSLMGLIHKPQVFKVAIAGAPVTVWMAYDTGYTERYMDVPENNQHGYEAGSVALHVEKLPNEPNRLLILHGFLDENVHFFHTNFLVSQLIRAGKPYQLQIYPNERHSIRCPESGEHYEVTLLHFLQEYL
In words: DPP9 inhibition, fluorogenic substrate H-Gly-Pro-AMC. Particulars: 25° C., H-Gly-Pro-AMC substrate. In a few lines: as §1

Experiment [5] addresses T5, recombinant human PREP (Homo sapiens, UniProt P48147).
T5 construct: purchased R&D System
T5 sequence (P48147 1-710): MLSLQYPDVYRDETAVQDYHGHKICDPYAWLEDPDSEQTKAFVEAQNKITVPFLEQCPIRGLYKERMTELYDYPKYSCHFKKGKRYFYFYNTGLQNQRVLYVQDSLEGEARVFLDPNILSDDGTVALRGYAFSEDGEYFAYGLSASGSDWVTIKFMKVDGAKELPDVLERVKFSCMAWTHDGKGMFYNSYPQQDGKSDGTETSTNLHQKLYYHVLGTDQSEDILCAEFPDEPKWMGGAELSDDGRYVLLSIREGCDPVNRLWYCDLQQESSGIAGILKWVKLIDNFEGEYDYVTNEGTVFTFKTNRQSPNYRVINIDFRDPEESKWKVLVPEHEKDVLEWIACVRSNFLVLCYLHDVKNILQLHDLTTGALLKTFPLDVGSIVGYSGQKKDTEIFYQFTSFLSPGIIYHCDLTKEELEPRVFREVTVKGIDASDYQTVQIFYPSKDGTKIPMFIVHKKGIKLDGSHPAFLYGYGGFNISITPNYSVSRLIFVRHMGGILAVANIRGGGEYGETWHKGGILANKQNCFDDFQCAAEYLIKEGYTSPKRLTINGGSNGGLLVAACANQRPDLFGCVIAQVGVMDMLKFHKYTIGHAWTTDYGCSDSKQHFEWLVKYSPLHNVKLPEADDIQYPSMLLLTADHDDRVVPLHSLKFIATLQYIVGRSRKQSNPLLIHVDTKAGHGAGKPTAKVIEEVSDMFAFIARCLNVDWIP
In words: PREP inhibition, fluorogenic substrate Z-Gly-Pro-AMC. The settings on record: Inhibitory Activity (IC50, nM) PREP, 25° C., Z-Gly-Pro-AMC substrate. Summed up: as §1

The target in experiment [6] is DPP4 (Homo sapiens, UniProt P27487). In words: DPP4 inhibition, fluorogenic substrate H-Gly-Pro-AMC. Particulars: for IC50: 25° C., H-Gly-Pro-AMC substrate; for inhibition at 1 µM: read-out: hDPP4 inhibition % at 1 μM. On the set-up: purchased R&D Systems.
Sequence of DPP4 (P27487 whole entry): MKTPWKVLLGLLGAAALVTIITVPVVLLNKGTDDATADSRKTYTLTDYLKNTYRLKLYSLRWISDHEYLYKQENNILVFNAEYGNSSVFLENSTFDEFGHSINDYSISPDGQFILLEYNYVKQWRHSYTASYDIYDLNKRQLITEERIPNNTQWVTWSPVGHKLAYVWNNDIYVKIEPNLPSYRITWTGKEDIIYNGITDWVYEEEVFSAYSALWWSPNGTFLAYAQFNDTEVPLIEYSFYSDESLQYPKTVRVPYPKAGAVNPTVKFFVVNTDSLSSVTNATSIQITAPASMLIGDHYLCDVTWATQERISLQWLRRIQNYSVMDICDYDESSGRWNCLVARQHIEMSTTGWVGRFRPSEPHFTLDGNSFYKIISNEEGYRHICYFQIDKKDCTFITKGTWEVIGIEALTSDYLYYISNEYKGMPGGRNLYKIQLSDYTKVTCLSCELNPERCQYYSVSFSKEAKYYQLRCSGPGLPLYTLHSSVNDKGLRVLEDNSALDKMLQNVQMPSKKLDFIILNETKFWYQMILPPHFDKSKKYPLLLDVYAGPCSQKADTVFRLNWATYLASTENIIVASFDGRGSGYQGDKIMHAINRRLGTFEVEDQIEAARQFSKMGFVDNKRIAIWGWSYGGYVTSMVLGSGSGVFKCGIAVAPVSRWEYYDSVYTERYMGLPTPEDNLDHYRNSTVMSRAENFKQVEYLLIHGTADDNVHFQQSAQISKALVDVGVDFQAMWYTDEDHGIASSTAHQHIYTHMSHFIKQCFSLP

A word on the IC50: it is the point on the concentration scale where inhibition reaches its midpoint. As usually defined, the inhibition is how much of the control response was suppressed.

Turning to `N#C[C@@H]1CC(F)(F)CN1C(=O)CN1CC[C@H](Nc2ccc(-c3ccccc3)cc2)C1` [Example 14, (S)-1-(2-((S)-3-([1,1′-biphenyl]-4-ylamino)pyrrolidin-1-yl)acetyl)-4,4-difluoropyrrolidine-2-carbonitrile], the half-maximal inhibitory concentration (IC50) in experiment [1] was 0.0187 µM; in experiment [2] it was 0.127 µM; in experiment [3], 0.676 µM; in experiment [4], 11.1 µM; in experiment [5] it was > 100000 nM; in experiment [6] it was > 1 µM.
Turning to `N#C[C@@H]1CC(F)(F)CN1C(=O)CN1CC[C@H](Nc2ccc3ccccc3c2)C1` [Example 15, (S)-4,4-difluoro-1-(2-((S)-3-(naphthalen-2-ylamino)pyrrolidin-1-yl)acetyl)pyrrolidine-2-carbonitrile], the IC50 in experiment [1] is 0.0123 µM; in experiment [2], 0.196 µM; in experiment [3], 0.253 µM; in experiment [4] it was 48.8 µM; in experiment [5], > 100000 nM. Besides, the inhibition at 1 µM in experiment [6] was 9.7%.
Regarding `N#C[C@@H]1CC(F)(F)CN1C(=O)CN1CC[C@H](Nc2cccc(-c3ccccc3)c2)C1` [Example 16, (S)-1-(2-((S)-3-([1,1′-biphenyl]-3-ylamino)pyrrolidin-1-yl)acetyl)-4,4-difluoropyrrolidine-2-carbonitrile], the concentration for half-maximal inhibition (IC50) in experiment [1] is 0.0026 µM; in experiment [2] it was 0.0847 µM; in experiment [3], 0.557 µM; in experiment [4] it was 13.7 µM; in experiment [5], > 100000 nM. Moreover, the inhibition at 1 µM in experiment [6] stood at 11%.
`N#C[C@@H]1CCCN1C(=O)CN1CC[C@@H](Nc2cnc3ccccc3c2)C1` [Example 17, (S)-1-(2-((R)-3-(quinolin-3-ylamino)pyrrolidin-1-yl)acetyl)pyrrolidine-2-carbonitrile]: the 50% inhibitory concentration (IC50) in experiment [1] was 0.00624 µM; in experiment [2] it was 1.61 µM; in experiment [3], > 10 µM; in experiment [4], > 100 µM; in experiment [5] it was 6960 nM; in experiment [6] it was > 1 µM.
Consider `N#C[C@@H]1CCCN1C(=O)CN1CC[C@H](Nc2cncc3ccccc23)C1` [Example 19, (S)-1-(2-((S)-3-(isoquinolin-4-ylamino)pyrrolidin-1-yl)acetyl)pyrrolidine-2-carbonitrile], for which the IC50 in experiment [1] was 0.00574 µM; in experiment [2], 0.206 µM; in experiment [3] it was 45.2 µM; in experiment [4], 44 µM; in experiment [5], 11800 nM; in experiment [6], > 1 µM.
With `N#C[C@@H]1CCCN1C(=O)CN1CC[C@H](Nc2cccc3sccc23)C1` [Example 20, (S)-1-(2-((S)-3-(benzo[b]thiophen-4-ylamino)pyrrolidin-1-yl)acetyl)pyrrolidine-2-carbonitrile], the IC50 in experiment [1] is 0.00453 µM; in experiment [2], 2.12 µM; in experiment [3], 23.1 µM; in experiment [4] it was 69.1 µM; in experiment [5], 7230 nM; in experiment [6], > 1 µM.
Turning to `N#C[C@@H]1CCCN1C(=O)CN1CC[C@@H](Nc2cncc3ccccc23)C1` [Example 24, (S)-1-(2-((R)-3-(isoquinolin-4-ylamino)pyrrolidin-1-yl)acetyl)pyrrolidine-2-carbonitrile], the 50% inhibitory concentration (IC50) in experiment [1] is 0.00212 µM; in experiment [2], 0.524 µM; in experiment [3], 77.3 µM; in experiment [4], 68 µM; in experiment [5], 5460 nM; in experiment [6] it was > 1 µM.
As to `N#C[C@@H]1CCCN1C(=O)CN1CC[C@H](Nc2cccc3ncccc23)C1` [Example 27, (S)-1-(2-((S)-3-(quinolin-5-ylamino)pyrrolidin-1-yl)acetyl)pyrrolidine-2-carbonitrile], the IC50 in experiment [1] was 0.00162 µM; in experiment [2], 1.22 µM; in experiment [3], 20.7 µM; in experiment [4] it was 27.4 µM; in experiment [5], 12100 nM. Also, the inhibition at 1 µM in experiment [6] came out at 5.4%.
With `N#C[C@@H]1C[C@H](F)CN1C(=O)CN1CC[C@H](Nc2cncc3ccoc23)C1` [Example 28, (2S,4S)-4-fluoro-1-(2-((S)-3-(furo[3,2-c]pyridin-7-ylamino)pyrrolidin-1-yl)acetyl)pyrrolidin-2-carbonitrile], the IC50 in experiment [1] is 0.00182 µM; in experiment [2], 0.346 µM; in experiment [3], 18.6 µM; in experiment [4] it was 8.24 µM; in experiment [5] it was 6600 nM; in experiment [6], 2.63 µM.
As for `N#C[C@@H]1C[C@H](F)CN1C(=O)CN1CC[C@H](NC(=O)c2coc3cc(F)ccc23)C1` [Example 29, N—((S)-1-(2-((2S,4S)-2-cyano-4-fluoropyrrolidin-1-yl)-2-oxoethyl)pyrrolidin-3-yl)-6-fluorobenzofuran-3-carboxamide], the IC50 was 0.00622 µM in experiment [1]; 0.728 µM in experiment [2]; 28.7 µM in experiment [3]; 17.5 µM in experiment [4]; 6170 nM in experiment [5]; > 100 µM in experiment [6].
With `N#C[C@@H]1CCCN1C(=O)CN1CC[C@H](NC(=O)c2cc3ccccc3s2)C1` [Example 36, N—((S)-1-(2-((S)-2-cyanopyrrolidin-1-yl)-2-oxoethyl)pyrrolidin-3-yl)benzo[b]thiophene-2-carboxamide], the IC50 was 0.0327 µM in experiment [1]; 3.55 µM in experiment [2]; 21.8 µM in experiment [3]; > 100 µM in experiment [4]; 6450 nM in experiment [5]; > 1 µM in experiment [6].
As to `N#C[C@@H]1CCCN1C(=O)CN1CC[C@H](NC(=O)c2coc3ccccc23)C1` [Example 37, N—((S)-1-(2-((S)-2-cyanopyrrolidin-1-yl)-2-oxoethyl)pyrrolidin-3-yl)benzofuran-3-carboxamide], the IC50 in experiment [1] is 0.0118 µM; in experiment [2], 5.17 µM; in experiment [3], 72.8 µM; in experiment [4], > 100 µM; in experiment [5], 8260 nM; in experiment [6], > 1 µM.
`N#C[C@@H]1CCCN1C(=O)CN1CC[C@H](NC(=O)c2csc3ccccc23)C1` [Example 41, N—((S)-1-(2-((S)-2-cyanopyrrolidin-1-yl)-2-oxoethyl)pyrrolidin-3-yl)benzo[b]thiophene-3-carboxamide]: the IC50 in experiment [1] is 0.0037 µM; in experiment [2], 4.13 µM; in experiment [3], 62.1 µM; in experiment [4], > 100 µM; in experiment [5], 3190 nM; in experiment [6] it was > 1 µM.
In the case of `N#C[C@@H]1CCCN1C(=O)CN1CC[C@H](NC(=O)c2coc3ccc(F)cc23)C1` [Example 43, N—((S)-1-(2-((S)-2-cyanopyrrolidin-1-yl)-2-oxoethyl)pyrrolidin-3-yl)-5-fluorobenzofuran-3-carboxamide], the IC50 in experiment [1] is 0.00994 µM; in experiment [2], 3.37 µM; in experiment [3] it was 44.7 µM; in experiment [4], > 100 µM; in experiment [5], 8350 nM. For the same compound, the inhibition at 1 µM in experiment [6] stood at 0.2%.
